Measurements published in PMC10892041, “Vanadium Complexes with Thioanilide Derivatives of Amino Acids: Inhibition of Human Phosphatases and Specificity in Various Cell Models of Metabolic Disturbances” (Pharmaceuticals, 2024).

What was measured:
Type in all cases: biochemical
LAR = biological target: T1, LAR (Homo sapiens, UniProt P10586); assay: Inhibition of human recombinant tyrosine phosphatase LAR (DiFMUP fluorescence); settings: for Inhibition of LAR, percentage of inhibition of the control: 1 µM, control solvent only, SD did not exceed 6%
T1 sequence (P10586 1352-1607 limits assumed): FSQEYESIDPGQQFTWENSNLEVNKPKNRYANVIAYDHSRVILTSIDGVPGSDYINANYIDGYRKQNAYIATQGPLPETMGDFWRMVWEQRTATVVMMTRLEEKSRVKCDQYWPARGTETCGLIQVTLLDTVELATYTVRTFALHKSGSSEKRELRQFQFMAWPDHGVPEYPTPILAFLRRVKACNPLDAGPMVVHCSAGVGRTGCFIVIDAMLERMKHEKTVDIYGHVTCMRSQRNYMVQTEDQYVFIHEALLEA
How it was run: (§1)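 Human recombinant phosphatases (SHP1 400 ng/mL, SHP2 50 ng/mL, LAR 5 ng/mL final) were pre-incubated 10 min with compound in 25 mM MOPS pH 7.0, 50 mM NaCl, 1 mM DTT, 0.05% Tween-20. DiFMUP (0.1 mM final) was added for 20 min at 23 °C and fluorescence read at 355/560 nm. Screening used 1 µM compound (% inhibition vs vehicle); IC50 also reported.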

PP2A = PP2A (Homo sapiens, UniProt P67775); assay: Inhibition of human recombinant non-tyrosine phosphatase PP2A (DiFMUP)
How it was run: (§2)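 Compound pre-incubated 10 min with enzyme: PP2A at 0.5 U/mL in 50 mM Tris-HCl pH 7.0, 0.05% Tween-20, 125 µg/mL BSA with 0.1 mM DiFMUP; CDC25A at 400 ng/mL with 0.2 mM 3-O-methylfluorescein phosphate. Incubation 180 min at 23 °C; fluorescence (ex 355/em 560 nm) read, percent inhibition versus vehicle control, triplicate.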

PTP1B = biological target: T2, PTP1B (Homo sapiens, UniProt P18031); assay: Inhibition of human recombinant tyrosine phosphatase PTP1B (DiFMUP fluorescence); settings: for Inhibition of PTP1B, percentage of inhibition of the control: 1 µM, control solvent only, SD did not exceed 6%; for Log IC50 ± SD PTP1B: logarithm of IC50; for IC50: read-out: IC50 PTP1B
T2 construct: purchased Sigma-Aldrich
T2 sequence (P18031 1-435): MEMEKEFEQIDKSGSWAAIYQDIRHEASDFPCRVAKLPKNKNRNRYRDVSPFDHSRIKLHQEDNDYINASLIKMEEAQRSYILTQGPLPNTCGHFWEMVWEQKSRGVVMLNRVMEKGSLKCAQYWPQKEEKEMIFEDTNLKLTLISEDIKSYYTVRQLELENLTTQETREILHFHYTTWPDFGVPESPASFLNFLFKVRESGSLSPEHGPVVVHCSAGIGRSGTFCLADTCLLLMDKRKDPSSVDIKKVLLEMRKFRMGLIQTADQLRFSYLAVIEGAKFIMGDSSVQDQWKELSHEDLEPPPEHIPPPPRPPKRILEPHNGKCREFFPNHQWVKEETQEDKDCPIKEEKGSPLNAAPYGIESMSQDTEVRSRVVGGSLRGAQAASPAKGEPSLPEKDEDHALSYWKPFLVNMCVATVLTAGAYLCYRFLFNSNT
How it was run: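 Human recombinant PTP1B (final 50 ng/mL) in buffer of 25 mM MOPS, 50 mM NaCl, 1 mM DTT and 0.05% Tween-20 (pH 7.0) was dispensed onto test compound in black 384-well plates. After 10 min, DiFMUP was added to 0.1 mM. Plates were incubated 20 min at 23 °C and fluorescence read (ex 355, em 560 nm). Assays were run in triplicate, with inhibition relative to enzyme-plus-vehicle control and IC50 fitted in GraphPad Prism.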

CDC25A = biological target: T3, CDC25A (Homo sapiens, UniProt P30304); assay: Inhibition of human recombinant non-tyrosine phosphatase CDC25A (3-O-methylfluorescein phosphate)
T3 construct: purchased Sigma-Aldrich
T3 sequence (P30304 1-524): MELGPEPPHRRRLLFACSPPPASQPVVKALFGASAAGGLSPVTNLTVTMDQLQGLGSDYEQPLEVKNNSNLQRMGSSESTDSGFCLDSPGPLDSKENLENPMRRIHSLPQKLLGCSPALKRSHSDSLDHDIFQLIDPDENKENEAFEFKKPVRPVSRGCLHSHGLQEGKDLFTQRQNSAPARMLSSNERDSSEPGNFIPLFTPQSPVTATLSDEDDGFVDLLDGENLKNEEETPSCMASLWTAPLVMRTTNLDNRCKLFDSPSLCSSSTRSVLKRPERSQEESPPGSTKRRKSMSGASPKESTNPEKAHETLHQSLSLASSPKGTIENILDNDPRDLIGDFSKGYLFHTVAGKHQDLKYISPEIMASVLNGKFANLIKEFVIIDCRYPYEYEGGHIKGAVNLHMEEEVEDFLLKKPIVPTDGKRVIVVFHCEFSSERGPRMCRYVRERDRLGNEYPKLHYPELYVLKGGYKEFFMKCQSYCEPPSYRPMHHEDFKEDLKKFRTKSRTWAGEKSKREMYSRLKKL
How it was run: as §2

SHP1 = biological target: T4, SHP1 (Homo sapiens, UniProt P29350); assay: Inhibition of human recombinant tyrosine phosphatase SHP1 (DiFMUP fluorescence); settings: for Inhibition of SHP1, percentage of inhibition of the control: 1 µM, control solvent only, SD did not exceed 6%; for Log IC50 ± SD SHP1: logarithm of IC50
T4 construct: purchased Sigma-Aldrich
How it was run: as §1

PP2A, sequence (P67775 whole entry): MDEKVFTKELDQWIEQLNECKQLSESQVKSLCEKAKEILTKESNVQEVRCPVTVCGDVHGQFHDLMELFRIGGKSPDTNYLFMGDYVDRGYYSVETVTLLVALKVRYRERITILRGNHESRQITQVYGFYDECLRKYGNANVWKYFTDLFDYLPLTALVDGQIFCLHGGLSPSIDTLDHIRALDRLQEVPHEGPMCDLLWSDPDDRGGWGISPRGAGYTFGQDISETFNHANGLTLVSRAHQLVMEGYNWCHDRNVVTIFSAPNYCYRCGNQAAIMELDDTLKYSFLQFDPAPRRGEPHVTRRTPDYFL
T4 sequence (P29350 whole entry): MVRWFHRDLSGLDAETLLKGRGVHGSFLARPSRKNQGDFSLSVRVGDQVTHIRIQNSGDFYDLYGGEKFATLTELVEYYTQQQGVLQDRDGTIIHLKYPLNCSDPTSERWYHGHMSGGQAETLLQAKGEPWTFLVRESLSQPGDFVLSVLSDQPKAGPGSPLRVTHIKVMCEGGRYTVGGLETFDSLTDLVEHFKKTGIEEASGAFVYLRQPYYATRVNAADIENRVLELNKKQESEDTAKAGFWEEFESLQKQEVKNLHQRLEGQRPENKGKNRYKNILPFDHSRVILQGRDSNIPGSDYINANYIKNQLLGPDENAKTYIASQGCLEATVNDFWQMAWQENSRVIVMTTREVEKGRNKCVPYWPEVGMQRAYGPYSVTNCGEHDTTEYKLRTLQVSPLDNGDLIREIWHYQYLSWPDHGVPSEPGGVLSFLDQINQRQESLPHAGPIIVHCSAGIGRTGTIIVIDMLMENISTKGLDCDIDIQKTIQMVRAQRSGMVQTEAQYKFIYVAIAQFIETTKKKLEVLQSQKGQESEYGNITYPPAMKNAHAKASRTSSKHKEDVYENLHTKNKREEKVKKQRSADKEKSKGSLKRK

Compound	IC50 (LAR)	Inhibition of LAR, percentage of inhibition of the control (LAR)	Inhibition of PP2A, percentage inhibition of control ± SD (PP2A; 1 µM)	Inhibition of PP2A, percentage inhibition of control ± SD (PP2A; 10 µM)	Inhibition of PTP1B, percentage of inhibition of the control (PTP1B)	Log IC50 ± SD PTP1B (PTP1B)	IC50 (PTP1B)	Inhibition of CDC25A, percentage inhibition of control ± SD (CDC25A; 1 µM)	Inhibition of CDC25A, percentage inhibition of control ± SD (CDC25A; 10 µM)	IC50 (SHP1)	Inhibition of SHP1, percentage of inhibition of the control (SHP1)	Log IC50 ± SD SHP1 (SHP1)
Cc1occc(=O)c1[O-].Cc1occc(=O)c1[O-].[O]=[V+2] [BMOV, bis(maltolato)oxidovanadium(IV), reference compound]	140 nM	58%	52 ± 15%	63 ± 4%	77%	−6.83 ± 0.02	149 nM	54 ± 1%	61 ± 1%	14 nM	76%	−7.86 ± 0.03
O=S(=O)([O-])[O-].[O]=[V+2] [VOSO4, reference compound]	95 nM	44%	32 ± 2%	40 ± 3%	62%	−7.00 ± 0.07	99 nM	54 ± 2%	62 ± 1%	17 nM	70%	−7.77 ± 0.02
